Like-named read-outs stand apart in the source and are kept apart here.
Legend:
[1] = test system: Caenorhabditis elegans strain PE255; assay: In vivo C. elegans ATP status assay
[2] = test system: HepG2 cells; assay: ROS-Glo hydrogen peroxide (ROS) assay; type: cell-based, human; conditions: Homo sapiens, HepG2; 2 h treatment; mean±SD of three experiments; read-out: ROS (HepG2) EC50
[3] = test system: HepG2 cells; conditions: cited from earlier work
[4] = test system: rat primary hepatocytes; assay: MMP assay in rat primary hepatocytes; conditions: for IC50: Rattus norvegicus, Hepatocyte
[5] = test system: HeLa cells expressing YFP-Parkin; assay: Parkin translocation assay; type: cell-based, human; conditions: HeLa cells stably expressing YFP-Parkin; treated for 2 h
[6] = test system: HepG2 cells; assay: Intracellular ATP content (cell viability) assay; type: cell-based, human; conditions: Homo sapiens, HepG2, 40 h treatment, mean±SD of three experiments
[7] = test system: Nrf2/ARE (ARE-bla HepG2 cells); assay: ARE β-lactamase reporter gene assay; type: cell-based, human; conditions: Homo sapiens, HepG2; 16 h incubation; mean±SD of three experiments; read-out: ARE (HepG2) EC50
[8] = test system: hNSC; assay: MMP assay in human neural stem cells (hNSC); type: cell-based; conditions: Homo sapiens, Neural stem cell; 1 h treatment; fresh re-sourced stocks; mean±SD of three experiments; read-out: hNSC IC50 (MMP)
[9] = test system: Caenorhabditis elegans (Bristol N2); assay: C. elegans larval development and growth assay
[10] = test system: p53 (p53-bla HCT-116 cells); assay: p53 β-lactamase reporter gene assay; type: cell-based, human; conditions: Homo sapiens; 16 h incubation; mean±SD of three experiments
[11] = test system: HepG2 cells; assay: cells; conditions: Homo sapiens
[12] = test system: isolated rat liver mitochondria; assay: Oxygen consumption, Clark-type oxygen electrode; type: biochemical; conditions: for I-ADP, % of control (O2 consumption rate): glutamate/malate driven state 3 respiration; for I-ADP, % of control (O2 consumption rate) / I-sub, % of control (O2 consumption rate) / II-ADP, % of control (O2 consumption rate) / II-sub, % of control (O2 consumption rate): isolated rat liver mitochondria; for I-sub, % of control (O2 consumption rate): glutamate/malate driven state 4 respiration; for II-ADP, % of control (O2 consumption rate): succinate-driven state 3 respiration; for II-sub, % of control (O2 consumption rate): succinate-driven state 4 respiration

## Cc1cc(O)c2c(c1)C(=O)c1cc(O)cc(O)c1C2=O [Emodin]
[1]; 0.5 µM
  LUM: mean difference in luminescence (ATP content) relative to plate controls: 0.08724
[1]; 1 µM
  LUM: mean difference in luminescence (ATP content) relative to plate controls: 0.09663
[1]; 5 µM
  LUM: mean difference in luminescence (ATP content) relative to plate controls: 0.2419
[1]; 10 µM
  LUM: mean difference in luminescence (ATP content) relative to plate controls: 0.4641
[1]; 25 µM
  LUM: mean difference in luminescence (ATP content) relative to plate controls: 0.5201
[1]; 50 µM
  LUM: mean difference in luminescence (ATP content) relative to plate controls: 0.576
[1]; 75 µM
  LUM: mean difference in luminescence (ATP content) relative to plate controls: 0.5532
[1]; 100 µM
  LUM: mean difference in luminescence (ATP content) relative to plate controls: 0.7699
[1]; 0.5–100μM, 24 h exposure
  effect on ATP content (in words): statistically significant decreases in ATP content
[1]; Caenorhabditis elegans, read-out: LEC LUM: lowest effect concentration for luminescence, a measure of nematode ATP content
  minimal effective concentration: 25 µM
[2]
  EC50: 5.24 ± 1.72 µM
[3]
  MMP assays efficacy (%) qHTS-HepG2: -97±5%
[3]; read-out: MMP assays IC50 (µM) qHTS-HepG2
  IC50: 1.33 ± 0.78 µM
[4]; % of positive control, mean±SD of three experiments
  Rat hepatocytes (efficacy) (MMP): −106±9.55%
[4]; 1 h, read-out: Rat hepatocytes IC50 (MMP)
  IC50: 15.8 ± 1.07 µM
[4]; read-out: MMP assays IC50 (µM) Rat Hepatocytes
  IC50: 6.28 ± 4.57 µM
[4]; rat hepatocytes, mean ± SD of three experiments
  MMP assays efficacy (%) Rat Hepatocytes: -101±17%
[5]
  Parkin recruitment: Active
[6]; 5 mM glucose, read-out: ATP (HepG2, glucose) IC50
  IC50: 43 ± 4.95 µM
[6]; 10 mM galactose, read-out: ATP (HepG2, galactose) IC50
  IC50: 39.7 ± 2.69 µM
[7]
  EC50: 10.5 ± 1.45 µM
[8]
  IC50: 1090 ± 560 nM
[9]; 0.5 µM
  EXT: mean difference in nematode size relative to plate controls: 0.07129
[9]; 1 µM
  EXT: mean difference in nematode size relative to plate controls: 0.003832
[9]; 5 µM
  EXT: mean difference in nematode size relative to plate controls: -0.0304
[9]; 10 µM
  EXT: mean difference in nematode size relative to plate controls: 0.01596
[9]; 25 µM
  EXT: mean difference in nematode size relative to plate controls: 0.07038
[9]; 50 µM
  EXT: mean difference in nematode size relative to plate controls: 0.04376
[9]; 100 µM
  EXT: mean difference in nematode size relative to plate controls: -0.01346
[9]; 0.5–100μM, 48 h exposure
  effect on larval growth (in words): did not affect growth
[10]
  EC50: 14.9 ± 6.5 µM
[11]; HepG2, 1 h, read-out: HepG2 IC50 Galactose (MMP)
  IC50: 8 ± 1.44 µM
[11]; HepG2, 1 h, read-out: HepG2 IC50 Glucose (MMP)
  IC50: 6.14 ± 1.29 µM
[11]; HepG2, read-out: MMP assays IC50 (µM) HepG2
  IC50: 2.51 µM
[11]; HepG2, read-out: MMP assays efficacy (%) HepG2
  Emax: 104%
[12]; 0.16 µM
  I-ADP, % of control (O2 consumption rate): 93 (34.5) % of control
  I-sub, % of control (O2 consumption rate): 102 (11.0) % of control
  II-ADP, % of control (O2 consumption rate): 94 (59.1) % of control
  II-sub, % of control (O2 consumption rate): 110 (20.4) % of control
[12]; 0.8 µM
  I-ADP, % of control (O2 consumption rate): 98 (36.6) % of control
  I-sub, % of control (O2 consumption rate): 120 (13.0) % of control
  II-ADP, % of control (O2 consumption rate): 94 (59.4) % of control
  II-sub, % of control (O2 consumption rate): 114 (21.1) % of control
[12]; 4 µM
  I-ADP, % of control (O2 consumption rate): 110 (41.0) % of control
  I-sub, % of control (O2 consumption rate): 232 (25.1) % of control
  II-ADP, % of control (O2 consumption rate): 84 (53.2) % of control
  II-sub, % of control (O2 consumption rate): 144 (26.8) % of control
[12]; 20 µM
  I-ADP, % of control (O2 consumption rate): 144 (53.6) % of control
  I-sub, % of control (O2 consumption rate): 540 (58.3) % of control
  II-ADP, % of control (O2 consumption rate): 81 (51.3) % of control
  II-sub, % of control (O2 consumption rate): 198 (36.7) % of control
[12]; 100 µM
  I-ADP, % of control (O2 consumption rate): 59 (30.1) % of control
  I-sub, % of control (O2 consumption rate): 165 (35.4) % of control
  II-ADP, % of control (O2 consumption rate): 33 (19.6) % of control
  II-sub, % of control (O2 consumption rate): 67 (23.4) % of control
[12]; mitochondrial respiration in isolated rat liver mitochondria, Clark type oxygen electrode, over tested concentrations
  Potential Mechanism: Uncoupler at low concentrations (4-20 µM), and Uncoupler + inhibitor at high concentrations (100 µM)
